The subject of series [1] is haloperidol-induced catalepsy. Briefly: haloperidol-induced catalepsy (standard PD model). As to conditions: oral doses after haloperidol; relative to control mGlu4 PAM VU506. In kind it is in vivo, rodent. An excerpt:
B) Efficacy of example 131 in the standard PD model of haloperidol-induced catalepsy, relative to a control mGlu4 PAM, VU506. […] Also see a) Engers, D. W.; Gogliotti, R. D.; Cheung, Y-Y.; Salovich, J. M.; Garcia-Barrantes, P. M.; Daniels, J. S.; Morrison, R.; Jones, C. K.; Blobaum, A. L.; Macor, J. E.; Bronson, J. J.; Conn, P. J.; Lindsley, C. W.; Niswender, C. M.; Hopkins, C. R. ‘Discovery, synthesis and pre-clinical characterization of N-(3-chloro-4-fluorophenyl)-1H-pyrazolo[4,3-b]pyridin-3-amine (VU0418506), a novel positive allosteric modulator of the metabotropic glutamate receptor 4 (mGlu4)’ ACS Chem. Neurosci. 2016, 7, 1192-1200; b) Niswender, C. M.; Jones, C. K.; Bubser, M.; Gray, A. T.; Blobaum, A. L.; Engers, D. W.; Altman, M. K.; O'Brien, D. E.; Rook, J. M.; Rodriguez, A. L.; Loch, M. T.; Daniels, J. S.; Lindsley, C. W.; Hopkins, C. R.; Conn, P. J. ‘Development of VU0418506, a positive allosteric modulator that differentiates metabotropic glutamate receptor 4 (mGlu4) homomeric receptors from mGlu2/4 heteromers’ ACS Chem. Neurosci., 2016, 7, 1201-1211.

For another series, the target named is human mGlu4 (Homo sapiens (Human), UniProt Q14833). The series is described as follows: mGlu4 PAM assay in human mGlu4/Gqi5 cells with ~EC20 glutamate (Hamamatsu FDSS). Type of series: cell-based. As to conditions: ~EC20 concentration of glutamate, read-out: mGlu4 PAM EC50. The protocol:
The disclosed compounds and compositions can be evaluated for their ability to act as a potentiatior of metabotropic glutamate receptor activity, in particular mGluR4 activity, by any suitable known methodology known in the art. For example, Chinese Hamster Ovary (CHO) cells transfected with human mGluR4 or HEK cells co-transfected with rat mGluR4 and the G-protein regulated Inwardly Rectifying Potassium channel (GIRK) were plated in clear bottom assay plates for assay in a Hamamatsu FDSS Fluorometric Plate Reader. The cells were loaded with either a Ca2+-sensitive fluorescent dye or the thallium responsive dye and the plates were washed and placed into a suitable kinetic plate reader. For human mGluR4 assays, a fluorescence baseline was established for 3-5 seconds, the disclosed compounds were then added to the cells, and the response in cells was measured. Approximately two and a half minutes later, a concentration of mGluR4 orthosteric agonist (e.g. glutamate, L-AP4, or L-SOP) eliciting approximately 20% (EC20) of the maximal agonist response was added to the cells, and the response was measured. Two minutes later, a concentration of mGluR4 agonist (e.g. glutamate, L-AP4, or L-SOP) eliciting 80% (EC80) of the maximal agonist response was added to the cells, and the response was measured. For rat mGluR4/GIRK experiments, a baseline was established for approximately five seconds, disclosed compounds were added, and either an EC20 or EC80 concentration of agonist was added approximately two and one half minutes later.
The above described assay operated in two modes. In the first mode, a range of concentrations of the disclosed compounds are added to cells, followed by a single fixed concentration of agonist. If the compound acts as a potentiatior, an EC50 value for potentiation and a maximum extent of potentiation by the compound at this concentration of agonist is determined by non-linear curve fitting. If the compound acts as an antagonist, an IC50 value is determined by non-linear curve fitting. In the second mode, several fixed concentrations of the disclosed compounds are added to various wells on a plate, followed by a range in concentrations of agonist for each concentration of disclosed compound. The EC50 values for the agonist at each concentration of compound are determined by non-linear curve fitting. A decrease in the EC50 value of the agonist with increasing concentrations of the sample compound (a leftward shift of the agonist concentration-response curve) is an indication of the degree of mGluR4 potentiation at a given concentration of the sample compound. A decrease in the maximal response of the agonist with increasing concentrations of the sample compounds, with or without a rightward shift in agonist potency, is an indication of the degree of antagonism at mGluR4. The second mode also indicates whether the sample compounds also affect the maximum response to mGluR4 to agonists.

The nature of the next series: rat CNS penetration (Kp). As to conditions: brain/plasma. Type of series: in vivo.

pEC50: −log10 of the molar value.

human mGlu4, sequence (Q14833 33-912): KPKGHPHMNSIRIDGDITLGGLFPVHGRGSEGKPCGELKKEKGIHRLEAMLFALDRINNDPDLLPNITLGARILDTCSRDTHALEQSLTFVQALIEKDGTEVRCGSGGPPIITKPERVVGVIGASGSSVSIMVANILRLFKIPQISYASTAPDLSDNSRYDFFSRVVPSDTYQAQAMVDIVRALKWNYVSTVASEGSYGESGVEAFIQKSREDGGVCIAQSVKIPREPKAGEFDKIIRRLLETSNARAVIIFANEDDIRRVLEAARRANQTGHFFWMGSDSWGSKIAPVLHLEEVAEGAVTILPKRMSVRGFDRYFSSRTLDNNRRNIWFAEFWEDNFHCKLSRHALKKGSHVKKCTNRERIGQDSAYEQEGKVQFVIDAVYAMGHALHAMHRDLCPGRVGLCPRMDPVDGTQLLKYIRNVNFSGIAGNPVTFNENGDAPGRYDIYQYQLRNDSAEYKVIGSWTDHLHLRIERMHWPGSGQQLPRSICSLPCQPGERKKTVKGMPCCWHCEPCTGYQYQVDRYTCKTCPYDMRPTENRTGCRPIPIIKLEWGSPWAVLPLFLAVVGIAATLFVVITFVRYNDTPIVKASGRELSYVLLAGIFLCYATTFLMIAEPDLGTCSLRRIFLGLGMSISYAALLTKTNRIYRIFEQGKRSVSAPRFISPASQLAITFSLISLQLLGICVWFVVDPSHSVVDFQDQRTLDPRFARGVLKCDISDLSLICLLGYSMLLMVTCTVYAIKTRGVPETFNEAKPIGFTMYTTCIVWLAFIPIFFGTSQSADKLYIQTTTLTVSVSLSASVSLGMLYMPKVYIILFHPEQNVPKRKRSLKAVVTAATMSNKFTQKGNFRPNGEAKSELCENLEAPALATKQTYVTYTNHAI

On to `Cn1nc(OC[C@H]2COCCO2)c2ccc(NC(=O)c3ncccc3N)cc21` [Compound 131], for which the “reversal of haloperidol-induced catalepsy” value in series [1] is given as “reverse catalepsy in a dose-dependent manner”. Further, on human mGlu4, the pEC50 – broadly, −log10 of the EC50, conventionally taken in molar units – is 7.30. Also, the Kp (usually the ratio of the level in a tissue or fluid to that in plasma or blood) in the series “rat CNS penetration (Kp)” turned out to be 1.6.

(Values after patent publication US10508105B2, “Indazole compounds as mGluR4 allosteric potentiators, compositions, and methods of treating neurological dysfunction” (Vanderbilt University, priority 2017, dated 2019).)
